Laboratory results taken from patent US20240360126A1, “PYRAZOLO[3,4-B]PYRIDINE COMPOUNDS FOR THE TREATMENT OF AUTOIMMUNE DISEASE” (Hoffmann-La Roche Inc., priority 2021, published 2024).

Test system: embryonic stem cells (D3) and 3T3 fibroblasts
Assay: mouse Embryonic Stem Cell Test (mEST)
Type: cell-based
Details: <0.5 negative, >0.6 positive
Source text: The in vitro mouse Embryonic Stem Cell Test (mEST) assay is an implemented routine assay at Roche. The original EST was developed by Horst Spielmann and his group in 1997 as an in vitro model for the screening of embryotoxicity, based on a blastocyst-derived permanent embryonic mouse ESC (mESC) D3 cell line derived from mouse 129 strains and was validated by European Centre for the Validation of Alternative Methods (ECVAM).
We further optimized and modified the approach allowing for the application of the assay to pharmaceutical compounds.
The cytotoxicity (inhibition of growth) of 3T3 fibroblasts, which represents differentiated cells and the cytotoxicity of undifferentiated embryonic stem cells (D3) after 10 days of substance treatment serve as two assay endpoints. This is determined by the use of dehydrogenase enzymes, which are present in the intact mitochondria of living cells to convert yellow soluble substrate 3-(4,5-dimethythiazol-2-yl)-2,5-diphenyl tetrazolium bromide (MTT) into a dark blue insoluble formazan product, which gets sequestered within the cells and is detected quantitatively using an absorbance reader (570 nm) after solubilizing the cell membrane.
The third endpoint is the inhibition of differentiation of ES cells into myocards which are cardiac muscle cells after 10 days of treatment. The beating of this cells is evaluated by microscopy. […]

Predictive scores D12_3 | SMILES
0.44 | Cc1cc(N2CC[C@@H](c3ncc(N4CCOC[C@@H](N)C4)cc3C)[C@H](C)C2)c2cnn(C)c2n1 [Example 28, (6S)-4-[6-[(3S,4R)-1-(1,6-dimethylpyrazolo[3,4-b]pyridin-4-yl)-3-methyl-4-piperidyl]-5-methyl-3-pyridyl]-1,4-oxazepan-6-amine]
0.36 | Cc1cc(N2CC[C@H](c3ccc(N4CCOC[C@@H](N)C4)cn3)[C@@H](C)C2)c2cnn(C)c2n1 [Example 40, (6S)-4-[6-[(3R,4S)-1-(1,6-dimethylpyrazolo[3,4-b]pyridin-4-yl)-3-methyl-4-piperidyl]-3-pyridyl]-1,4-oxazepan-6-amine]
